Values of other authors in patent US20190367449A1, “PHENYLCREATINE, ITS USE AND METHOD FOR ITS PRODUCTION” (priority 2017, published 2019).

Conditions: in vivo; cited from earlier work

Structure (SMILES): CN(CC(=O)O)C(=N)N.Cl [creatine hydrochloride]
- Relative bioavailability, higher than of creatine monohydrate: about 50%
